Assay results as given in US9332753B2, “Plant volatiles based on R-curcumene” (Keygene N.V., priority 2009, dated 2016).
Entries after “also recorded” stand apart in the source; their conditions may differ.

Columns and labels:
B. tabaci antennae = experiment: Electroantennography (EAG); design: species or system Bemisia tabaci
Method: Electroantennography (EAG) was employed to confirm the responsiveness of the atennae to 10-3 dilution in paraffin oil (Uvasol, Merck) of the chemicals described. Small pieces of filter paper (2 cm2; Schleicher & Schuell, Dassel, Germany) were soaked with 100 μl of the standard dilution or paraffin oil only (control). The filter paper was inserted into a 10-ml glass syringe (Poulten & Graf GmbH, Wertheim, Germany). A reproducible stimulus was supplied by puffing 5 ml of air over the antenna (Schutz et al., 1999). The EAG response was recorded for each standard dilution. The response to paraffin oil was considered as a negative control and was subtracted from all the reported EAG measurements.

B. tabaci [1] = experiment: Free choice bioassay with pure volatiles or mixtures added to one of four cv Moneymaker plants; assay type: in vivo, Bemisia tabaci biotype Q (Almeria population); conditions: for behavioural effect (significance of effect on B. tabaci behaviour in choice-assays): significance stars, key not given; for effect on whitefly behaviour: one of four Moneymaker plants treated
Text: For bioassays with headspace (total headspace or single compounds) four potted tomato plants (S. esculentum cv Moneymaker) were placed in a square setup at a distance of 50 cm. One hundred and fifty adult whiteflies were released and recorded as described above. To test the effect of selected headspace components on repellence, synthetic standards (FLUKA) were applied to either 10 filter-papers discs (Whatman, 25 mm diameter) or 10 rubber septa (Sigma Aldrich, Z167258). Prior to loading, the septa were placed in CH2Cl2 for 24 h and air-dried for 3 days (Heath et al., 1986). The paper discs or septa containing volatiles were attached to one of the four plants with metal wire. The position of the treated tomato was randomised. Five minutes after placing the volatiles on the plant, whiteflies were released. For each component at least 8 replications were carried out. Treatments were administered in a setup in which compounds were always added to the same plant in comparison to 3 plants with empty carriers. Prior to each assay with volatiles, the experiment was done with the 4 plants in an untreated setup, in the same position to allow comparison in the same background.
Host preference with and without manipulated headspace by B. tabaci was explored in free choice assays. In each setup four cultivated tomatoes (cv. Moneymaker) were tested as described earlier. For the bioassays with volatiles rubber septa (Sigma Aldrich Z167258) were extracted with CH2Cl2 for 24 hours and dried to the air for 3 days. The desired blend of volatiles was added to the rubber septa in 100 μl hexane. Bioassays with pure components, or mixtures of pure components were carried out as described above.
To positively confirm the correlation between the 7 candidate components and B. tabaci behaviour, host preference was assayed in bioassays with pure components. The desired (blend of) pure volatile chemicals were added, as described above, to the Moneymaker background on filter paper cards. […] The percentage of whiteflies visiting the treated plant decreased with 44% on average (p<0.001) (FIG. 2a) while the untreated plants harboured increased numbers of B. tabaci. […] To assess whether the sum of these three components would yield a greater effect than p-cymene alone, a mixture of p-cymene: gamma-terpinene: beta-myrcene in the same ratio as found in accession LA2560 (1:12:3) was tested. […] Finally, the sesquiterpenes were tested, tomato-derived 7-epi-zingiberene as well as its oxidation product R-curcumene, and zingiberene and its oxidation product S-crucume.

B. tabaci [2] = experiment: Correlation of identified headspace volatiles with whitefly repellence ranking (stepwise linear regression, MANOVA); design: species or system Bemisia tabaci biotype Q; conditions: for Effect (semiochemical associated to B. tabaci repellence or attraction): first Table 5; for association (B. tabaci repellence or attraction): second Table 5; for Effect on insects: volatile related to whitefly repellence or attraction (Table 1)
Text: In a large experiment (see Example 2), the headspace of 16 wild tomato accessions and 5 cultivated tomato lines were sampled and analyzed (6 repeats). In total 51 compounds were identified to be present in the captured headspace. Furthermore, the level of repellency/attraction of each of the 21 tomato accessions was established in free choice bioassays with B. tabaci (biotype Q), using a ranking scale of 1-7 (1=highest repellency to 7=lowest repellency). Next, the identified volatile compounds were correlated to the repellency/attraction score of each tomato accession through a linear regression analysis.
The headspace of 16 wild tomatoes and 5 cultivated tomatoes (Table 4) was collected. Undisturbed 3-weeks old tomato plants were transferred to 40-L desiccators. The headspace was sampled during 24 h including a 16 h light period, by trapping of the volatile components as described above. […] Each accession was sampled 6 times.
In a statistical analysis the correlation between the identified components of the tomato headspace and the ranking of whitefly repellence measured in the bioassays was made. Using two approaches, a stepwise-linear regression analysis and a MANOVA, 8 volatiles were identified to be correlated to whitefly repellence, whereas 24 other volatile compounds were eliminated as non-relevant for repellency or attraction.

[3] = test system: pests of cut flowers (e.g. B. tabaci); conditions: fumigant, 10-20 mg/l, after 2-4 hours of exposure; cited from earlier work
[4] = Conversion on exposure to air; assay type: physicochemical
[5] = test system: fourth instar larvae of Colorado potato beetle; conditions: cited from earlier work
[6] = test system: adult whiteflies B. tabaci; conditions: cited from earlier work
[7] = responses of B. tabaci antennae
[8] = n = 5, mean response and scatter, 10^-3 dilution in paraffin oil

C=C(C)[C@H]1CC=C(C)CC1 [limonene]
antennal response (B. tabaci antennae; [7]): 3.5 mV | behavioural effect (significance of effect on B. tabaci behaviour in choice-assays) (B. tabaci [1]): ns | correlation with repellence or attraction of tomato accessions (B. tabaci [2]): significantly correlated to the more attractive cultivated S. lycopersicum plants | Effect (semiochemical associated to B. tabaci repellence or attraction) (B. tabaci [2]): attraction | association (B. tabaci repellence or attraction) (B. tabaci [2]): attraction | Effect on insects (B. tabaci [2]): Attractant

CC12CCC(CC1)C(C)(C)O2 [Cineole]
mortality [3]: caused mortality

CC1=CC2C(CC1)C2(C)C (stereo not shown) [2-carene]
antennal response (B. tabaci antennae; [7]): 3.9 mV | behavioural effect (significance of effect on B. tabaci behaviour in choice-assays) (B. tabaci [1]): ns | correlation with repellence or attraction of tomato accessions (B. tabaci [2]): significantly correlated to the more attractive cultivated S. lycopersicum plants | Effect (semiochemical associated to B. tabaci repellence or attraction) (B. tabaci [2]): attraction | association (B. tabaci repellence or attraction) (B. tabaci [2]): attraction | Effect on insects (B. tabaci [2]): Attractant

C=CC(=C)CCC=C(C)C [beta-myrcene]
antennal response (B. tabaci antennae; [7]): ns | effect on whitefly behaviour (B. tabaci [1]): did not influence whitefly behaviour | behavioural effect (significance of effect on B. tabaci behaviour in choice-assays) (B. tabaci [1]): ns | correlation with repellence or attraction of tomato accessions (B. tabaci [2]): repellent compounds linked to S. pennelli | Effect (semiochemical associated to B. tabaci repellence or attraction) (B. tabaci [2]): repellence | association (B. tabaci repellence or attraction) (B. tabaci [2]): repellence | Effect on insects (B. tabaci [2]): Repellent

CC(C)=CCC[C@H](C)[C@@H]1C=CC(C)=CC1 [zingiberene]
antennal response (B. tabaci antennae; [8]): 21 (5-30) μV | antennal response (B. tabaci antennae; [7]): 2.1 mV | stability when exposed to air [4]: rapidly converted to R- and S-curcumene respectively | effect on whitefly behaviour (B. tabaci [1]): did not appear to be repelled | Effect (semiochemical associated to B. tabaci repellence or attraction) (B. tabaci [2]): repellence | association (B. tabaci repellence or attraction) (B. tabaci [2]): repellence | Effect on insects (B. tabaci [2]): Repellent

CC1=CCC(C(C)C)C=C1 (stereo not drawn) [Alpha-phellandrene]
antennal response (B. tabaci antennae; [7]): 2.2 mV | correlation with repellence or attraction of tomato accessions (B. tabaci [2]): repellent compounds linked to S. pennelli | association (B. tabaci repellence or attraction) (B. tabaci [2]): repellence | Effect on insects (B. tabaci [2]): Repellent

C=CCc1ccc2c(c1)OCO2 [safrole]
mortality [3]: caused mortality

CC1=CC=C(C(C)C)CC1 [Alpha-terpinene]
antennal response (B. tabaci antennae; [7]): 4.1 mV | correlation with repellence or attraction of tomato accessions (B. tabaci [2]): repellent compounds linked to S. pennelli | association (B. tabaci repellence or attraction) (B. tabaci [2]): repellence | Effect on insects (B. tabaci [2]): Repellent

Cc1ccc(C(C)C)cc1 [para-cymene]
antennal response (B. tabaci antennae; [7]): 2.4 mV | decrease of percentage of whiteflies visiting the treated plant (B. tabaci [1]; on average, vs same plant in untreated setup, p-cymene 10 μg, mixture ratio 1:12:3): 44% | correlation with repellence or attraction of tomato accessions (B. tabaci [2]): repellent compounds linked to S. pennelli | Effect (semiochemical associated to B. tabaci repellence or attraction) (B. tabaci [2]): repellence | association (B. tabaci repellence or attraction) (B. tabaci [2]): repellence | Effect on insects (B. tabaci [2]): Repellent

CC1=CCC(C(C)C)=CC1 [gamma-terpinene]
antennal response (B. tabaci antennae; [7]): 1.9 mV | behavioural effect (significance of effect on B. tabaci behaviour in choice-assays) (B. tabaci [1]): ns | correlation with repellence or attraction of tomato accessions (B. tabaci [2]): repellent compounds linked to S. pennelli | Effect (semiochemical associated to B. tabaci repellence or attraction) (B. tabaci [2]): repellence | association (B. tabaci repellence or attraction) (B. tabaci [2]): repellence | Effect on insects (B. tabaci [2]): Repellent

CCCCCCCCCC(C)=O [2-undecanone]
toxic effect [5]: toxic effect

CCCCCCCCCCCC(C)=O [2-tridecanone]
toxic effect [6]: toxic effect

C=C1C=CC(C(C)C)CC1 (stereo not drawn) [beta-phellandrene]
antennal response (B. tabaci antennae; [7]): 2.5 mV | effect on whitefly behaviour (B. tabaci [1]): decreased tomato attractiveness significantly | behavioural effect (significance of effect on B. tabaci behaviour in choice-assays) (B. tabaci [1]): ns | correlation with repellence or attraction of tomato accessions (B. tabaci [2]): significantly correlated to the more attractive cultivated S. lycopersicum plants | Effect (semiochemical associated to B. tabaci repellence or attraction) (B. tabaci [2]): attraction | association (B. tabaci repellence or attraction) (B. tabaci [2]): attraction | Effect on insects (B. tabaci [2]): Attractant

CC(C)=CCC[C@@H](C)[C@@H]1C=CC(C)=CC1 [7-epi-zingiberene]
antennal response (B. tabaci antennae; [8]): 23 (0-53) μV | antennal response (B. tabaci antennae; [7]): 2.3 mV | stability when exposed to air [4]: rapidly converted to R- and S-curcumene respectively | effect on whitefly behaviour (B. tabaci [1]): clear repellent effect; also recorded: very effective in reducing the number of whitefly visitations | correlation with repellence or attraction of tomato accessions (B. tabaci [2]): appear to be responsible for rendering the S. habrochaites (former typicum) more unattractive | Effect (semiochemical associated to B. tabaci repellence or attraction) (B. tabaci [2]): repellence | association (B. tabaci repellence or attraction) (B. tabaci [2]): repellence | Effect on insects (B. tabaci [2]): Repellent

CC(C)=CCC[C@@H](C)c1ccc(C)cc1 [R-curcumene]
antennal recognition / sensitivity (B. tabaci antennae; electroantennography): highest sensitivity | antennal response (B. tabaci antennae; [8]): 50 (8-148) μV | antennal response (B. tabaci antennae; [7]): 5.0 mV | effect on whitefly behaviour (B. tabaci [1]): clear repellent effect; also recorded: repelled | correlation with repellence or attraction of tomato accessions (B. tabaci [2]): appear to be responsible for rendering the S. habrochaites (former typicum) more unattractive | Effect (semiochemical associated to B. tabaci repellence or attraction) (B. tabaci [2]): repellence | association (B. tabaci repellence or attraction) (B. tabaci [2]): repellence | Effect on insects (B. tabaci [2]): Repellent

CC(C)=CCC[C@H](C)c1ccc(C)cc1 [S-curcumene]
antennal response (B. tabaci antennae; [8]): 27 (3-60) μV | antennal response (B. tabaci antennae; [7]): 2.7 mV | effect on whitefly behaviour (B. tabaci [1]): did not appear to repel | Effect (semiochemical associated to B. tabaci repellence or attraction) (B. tabaci [2]): repellence | association (B. tabaci repellence or attraction) (B. tabaci [2]): repellence | Effect on insects (B. tabaci [2]): Repellent
